Measurements: patent publication US20140308733A1, “METHOD FOR INDUCING GERMINATION OF SPORE FORMING BACTERIUM” (CALPIS CO., LTD., priority 2011, published 2014)

Legend:
Format in all cases: cell-based
[1] = test system: Aeribacillus pallidus TK6004 (FERM BP-08597); experiment: Germination induction, change of turbidity (630 nm) of spore suspension; details: 300 ppm; for turbidity (630 nm): 37° C., 150 rpm; for germination confirmed by turbidity decrease: up to 180 min
[2] = test system: Bacillus coagulans (NBRC 12583); experiment: as above; details: 300 ppm; for turbidity (630 nm): 37° C., 150 rpm; for germination confirmed by turbidity decrease: up to 180 min
[3] = test system: Bacillus coagulans (NBRC 3887); experiment: as above; details: 300 ppm; for turbidity (630 nm): 37° C., 150 rpm; for germination confirmed by turbidity decrease: up to 180 min
[4] = test system: Bacillus licheniformis (NBRC 12195); experiment: as above; details: 300 ppm; for turbidity (630 nm): 37° C., 150 rpm; for germination confirmed by turbidity decrease: up to 180 min
[5] = test system: Bacillus subtilis C-3102 (FERM BP-1096); experiment: Germination induction by ferulic acid, vanillic acid or p-coumaric acid at 300 ppm, turbidity change (Example 3); details: for turbidity (630 nm): 37° C., 150 rpm
Protocol: In each 500 mL of distilled water heated to 70° C. was added 0.3 g of ferulic acid, vanillic acid, or p-coumaric acid. After dissolving with stirring using a stirring rod with a propeller, filtration sterilization (0.45 μm filter) was conducted to prepare each 600 ppm-solution.
Next, 500 μL aliquots of bacterial suspension of Bacillus subtilis C-3102 (FERM BP-1096) prepared by a similar method as in Example 1 were mixed with 500 μL of each of the ferulic acid, vanillic acid, and p-coumaric acid solutions, and the mixtures were adjusted to 300 ppm of ferulic acid, vanillic acid, or p-coumaric acid concentration. Defining the time point of mixing as the reaction initiation (0 min), and continuing shaking (150 rpm) at 37° C., the turbidity (630 nm) was measured at 10, 20, 30, 40, 50, 60, 90, 120, and 180 min after the reaction initiation.

[6] = 0 min after reaction initiation
[7] = 10 min after reaction initiation
[8] = 20 min after reaction initiation
[9] = 30 min after reaction initiation
[10] = 40 min after reaction initiation
[11] = 50 min after reaction initiation
[12] = 60 min after reaction initiation
[13] = 90 min after reaction initiation
[14] = 120 min after reaction initiation
[15] = 180 min after reaction initiation

COc1cc(/C=C/C(=O)O)ccc1O [Ferulic acid, ferulic acid]
turbidity (630 nm) [1, 6]: 0.484 | turbidity (630 nm) [1, 7]: 0.450 | turbidity (630 nm) [1, 8]: 0.393 | turbidity (630 nm) [1, 9]: 0.276 | turbidity (630 nm) [1, 10]: 0.193 | turbidity (630 nm) [1, 11]: 0.124 | turbidity (630 nm) [1, 12]: 0.080 | turbidity (630 nm) [1, 13]: 0.040 | turbidity (630 nm) [1, 14]: 0.016 | turbidity (630 nm) [1, 15]: 0.016 | germination confirmed by turbidity decrease [1]: the turbidity decreased | turbidity (630 nm) [2, 6]: 0.558 | turbidity (630 nm) [2, 7]: 0.520 | turbidity (630 nm) [2, 8]: 0.518 | turbidity (630 nm) [2, 9]: 0.510 | turbidity (630 nm) [2, 10]: 0.460 | turbidity (630 nm) [2, 11]: 0.392 | turbidity (630 nm) [2, 12]: 0.350 | turbidity (630 nm) [2, 13]: 0.266 | turbidity (630 nm) [2, 14]: 0.217 | turbidity (630 nm) [2, 15]: 0.198 | germination confirmed by turbidity decrease [2]: the turbidity decreased | turbidity (630 nm) [3, 6]: 0.566 | turbidity (630 nm) [3, 7]: 0.531 | turbidity (630 nm) [3, 8]: 0.500 | turbidity (630 nm) [3, 9]: 0.454 | turbidity (630 nm) [3, 10]: 0.423 | turbidity (630 nm) [3, 11]: 0.372 | turbidity (630 nm) [3, 12]: 0.340 | turbidity (630 nm) [3, 13]: 0.300 | turbidity (630 nm) [3, 14]: 0.247 | turbidity (630 nm) [3, 15]: 0.209 | germination confirmed by turbidity decrease [3]: the turbidity decreased | turbidity (630 nm) [4, 6]: 0.541 | turbidity (630 nm) [4, 7]: 0.521 | turbidity (630 nm) [4, 8]: 0.502 | turbidity (630 nm) [4, 9]: 0.480 | turbidity (630 nm) [4, 10]: 0.449 | turbidity (630 nm) [4, 11]: 0.430 | turbidity (630 nm) [4, 12]: 0.392 | turbidity (630 nm) [4, 13]: 0.368 | turbidity (630 nm) [4, 14]: 0.324 | turbidity (630 nm) [4, 15]: 0.290 | germination confirmed by turbidity decrease [4]: the turbidity decreased | germination confirmed by turbidity decrease [5]: decreased, thereby to confirm germination | turbidity (630 nm) [5, 6]: 0.545 | turbidity (630 nm) [5, 7]: 0.527 | turbidity (630 nm) [5, 8]: 0.513 | turbidity (630 nm) [5, 9]: 0.484 | turbidity (630 nm) [5, 10]: 0.466 | turbidity (630 nm) [5, 11]: 0.449 | turbidity (630 nm) [5, 12]: 0.413 | turbidity (630 nm) [5, 13]: 0.368 | turbidity (630 nm) [5, 14]: 0.313 | turbidity (630 nm) [5, 15]: 0.233

COc1cc(C(=O)O)ccc1O [Vanillic acid, vanillic acid]
turbidity (630 nm) [1, 6]: 0.482 | turbidity (630 nm) [1, 7]: 0.444 | turbidity (630 nm) [1, 8]: 0.348 | turbidity (630 nm) [1, 9]: 0.243 | turbidity (630 nm) [1, 10]: 0.158 | turbidity (630 nm) [1, 11]: 0.103 | turbidity (630 nm) [1, 12]: 0.067 | turbidity (630 nm) [1, 13]: 0.026 | turbidity (630 nm) [1, 14]: 0.010 | turbidity (630 nm) [1, 15]: 0.000 | germination confirmed by turbidity decrease [1]: the turbidity decreased | turbidity (630 nm) [2, 6]: 0.590 | turbidity (630 nm) [2, 7]: 0.528 | turbidity (630 nm) [2, 8]: 0.490 | turbidity (630 nm) [2, 9]: 0.430 | turbidity (630 nm) [2, 10]: 0.390 | turbidity (630 nm) [2, 11]: 0.335 | turbidity (630 nm) [2, 12]: 0.290 | turbidity (630 nm) [2, 13]: 0.225 | turbidity (630 nm) [2, 14]: 0.180 | turbidity (630 nm) [2, 15]: 0.137 | germination confirmed by turbidity decrease [2]: the turbidity decreased | turbidity (630 nm) [3, 6]: 0.559 | turbidity (630 nm) [3, 7]: 0.550 | turbidity (630 nm) [3, 8]: 0.473 | turbidity (630 nm) [3, 9]: 0.411 | turbidity (630 nm) [3, 10]: 0.364 | turbidity (630 nm) [3, 11]: 0.321 | turbidity (630 nm) [3, 12]: 0.295 | turbidity (630 nm) [3, 13]: 0.230 | turbidity (630 nm) [3, 14]: 0.182 | turbidity (630 nm) [3, 15]: 0.130 | germination confirmed by turbidity decrease [3]: the turbidity decreased | turbidity (630 nm) [4, 6]: 0.536 | turbidity (630 nm) [4, 7]: 0.513 | turbidity (630 nm) [4, 8]: 0.483 | turbidity (630 nm) [4, 9]: 0.438 | turbidity (630 nm) [4, 10]: 0.393 | turbidity (630 nm) [4, 11]: 0.324 | turbidity (630 nm) [4, 12]: 0.278 | turbidity (630 nm) [4, 13]: 0.196 | turbidity (630 nm) [4, 14]: 0.151 | turbidity (630 nm) [4, 15]: 0.092 | germination confirmed by turbidity decrease [4]: the turbidity decreased | germination confirmed by turbidity decrease [5]: decreased, thereby to confirm germination | turbidity (630 nm) [5, 6]: 0.542 | turbidity (630 nm) [5, 7]: 0.525 | turbidity (630 nm) [5, 8]: 0.506 | turbidity (630 nm) [5, 9]: 0.485 | turbidity (630 nm) [5, 10]: 0.467 | turbidity (630 nm) [5, 11]: 0.450 | turbidity (630 nm) [5, 12]: 0.409 | turbidity (630 nm) [5, 13]: 0.379 | turbidity (630 nm) [5, 14]: 0.356 | turbidity (630 nm) [5, 15]: 0.282
